Consider two compounds from US20070009986A1, “Compositions for modulating immune cell activity and methods for detection thereof” (priority 2003, published 2007).

The test system of this assay is CD8+CD45RO+ T-cell migration towards and away from HIV-1gp120. The assay can be described thus: Inhibitor profile of T-cell movement towards and away from recombinant X4 gp120 in transmigration assays. The class given is cell-based, human. To be noted: for inhibition of migration away from gp120: T-cells including HIV-specific CTL. The procedure: Transmigration assays: Transmigration assays were performed in a transwell system with a polycarbonate membrane of 6.5-mm diameter with 5 μm pore size (Corning, Corning, N.Y.) as described (Kim et al., 1998, Blood 91:4434-4443; Poznansky et al., 2000, Nat Med 6:543-548). Purified T-cell subpopulations (5×10^4 cells) were added to the upper chamber of each well in a total volume of 150 μl Iscove's modified media. SDF-1α (PeproTech, Rocky Hill, N.J.) or recombinant HIV-1 gp120 (Immunodiagnostics, Woburn, Mass., AIDS Reagent Repository, NIH or RW) was used at concentrations ranging from 2 ng/ml to […] in the lower, upper, or both lower and upper chambers of the transwell to generate a standard “checkerboard” analysis matrix of positive, negative and absent gradients. Recombinant variable loop deletion mutants of HIV-1IIIB gp120 including V1, V1.V2, and V1.V2.V3, were also used in these assays. Transwells were incubated for 3 hours at 37° C., after which cells were collected from the lower chamber and counted.
Specific components of the Gi-protein coupled receptor signaling pathway for SDF-1 can be blocked by a number of different chemical inhibitor (Poznansky et al., 2000, Nat Med 6:543-548; Poznansky et al., 2002, Clin. Invest. 109:1101-1110; Sotsios et al., 1999, J. Immunol. 163:5954-5963; Vlahakis et al. 2001, J. Clin. Invest. 107:207-215). The inhibitor profile for movement of resting T-cell subpopulations towards and away from recombinant X4 gp120 in transmigration assays had been established.

For `Nc1ncnc2c1nc(Br)n2[C@@H]1O[C@@H]2COP(=O)(O)O[C@H]2[C@H]1O` [8-Br-cAMP], the “inhibition of migration away from gp120” value is “inhibited”.
Consider pertussis toxin, for which the “inhibition of migration away from gp120” value is “inhibited”. The “inhibition of T-cell migration towards and away from HIV-1gp120” value (CD8+CD45RO+ T-cells incubated with inhibitor prior to transmigration assay, FIG. 2) is reported as “significantly inhibited”.
